Each structure is given as a SMILES string.

Data set [1] in a line: Dog intravenous pharmacokinetic study. Format: in vivo, Male beagle dogs. The note with it: male, beagle, IV dose of 1 mg/kg, plasma, read-out: Dog t1/2 (converted). As to the method:
The pharmacokinetic studies in dog were conducted at Pfizer Global Research and Development (Groton, Conn.). All in vivo studies were conducted in accordance with regulations and established guidelines using protocols reviewed and approved by the Pfizer Worldwide Research and Development (WRD, or other) Institutional Animal Care and Use Committee.
Male beagle dogs were fasted overnight with water provided ad libitium. The dogs were fed at approximately 2-4 h post-dose. The dogs (n=2) were administered an IV bolus via the cephalic vein. Compounds of Examples 1-3 were tested along with the following four comparative compounds.
All test compounds were administered an IV dose of 1 mg/kg of the specified compound which was delivered in a dose volume of 0.5 mL/kg. The dose solution was formulated in 10% PEG400/90% of 23% (w/v) HPBCD in de-ionized water for the following test compounds: Example 1, Example 2, and Example 3; in 20% SBECD (sulfobutyl either β-cyclodextrin) for Comparative-Compound 3; in 23% (w/v) HPBCD (hydroxypropyl β-cyclodextrin) in water for Comparative Compound 2; in 12.5.% SBECD in water with 0.25% 0.1N HCl to pH 5 for Comparative Compound 1. Serial blood samples were collected from each dog via the jugular vein prior to dose administration and at the following time points post-dose: 0.083, 0.25, 0.5, 1, 2, 4, 7, and 24 h for all compounds with an additional time point of 0.016 h collected for Comparative Compound 1 only. Blood samples were collected into tubes containing EDTA and placed on wet ice. Following centrifugation to afford plasma, the samples were transferred to polypropylene tubes and stored frozen at −20° C. to −80° C. until analysis.
All plasma samples were quantified via liquid chromatography/tandem mass spectrometry (LC/MS-MS) using multiple reaction monitoring with non-validated methods. The plasma standard curves were generated with species specific plasma. Pharmacokinetic parameters were determined by non-compartmental analysis using Watson LIMS software version 7.4 (Thermo Fisher Scientific, Waltham, Mass.). The area under the concentration versus time curve (AUC) was calculated from the first time point to the last time point with measurable drug concentration using a linear trapezoidal rule. The area under the concentration versus time curve from the first time point to time infinity (AUC(0-inf)) was calculated by extrapolation from the time point where the last measurable concentration occurred to time infinity by dividing the observed concentration at the last time point by the elimination rate constant determined using linear regression of plasma concentration versus time data. The plasma clearance (CLp) was calculated by the equation CLp=dose/AUC(0-inf). The elimination half-life (t½) was calculated using the following equation t1/2=ln 2/k; k is equal to the rate constant of elimination calculated by the least squares of the log transformed data.

A short description of data set [2]: In vitro intrinsic clearance in human hepatocytes. Format: in vitro ADME. The conditions noted are these: 1 μM substrate, human hepatocytes 0.5 million viable cells per mL, 37° C. As to the method:
Test Compounds (Example 1-3 and Comparative-Compounds 1-4) were prepared as solutions in DMSO at 3 mM which were then diluted in media containing WEM. The final concentration of DMSO in the incubation was 0.03% (v/v). The in vitro half-life (t½) of each compound was determined in incubations containing substrate (1 μM), human hepatocytes (0.5 million viable cells per mL final concentration) in media containing WEM, 50 mM HEPES buffer (pH 7.4), and 26 mM sodium bicarbonate at 37° C. (all final concentrations) in a 96-well plate. The reaction mixture was pre-warmed at 37° C. for 30 min prior to the initiation of the incubation. The incubation was quenched with acetonitrile containing internal standards at the following time points: 0, 5, 15, 30, 60, 120, and 240 min (individual incubation plates per time point). The samples were vortexed followed by centrifugation. An aliquot of supernatant was transferred to a clean 96-well plate and analyzed by LC/MS-MS using multiple reaction monitoring. For control experiments, hepatocytes were omitted from the incubations.
The hepatocyte t½ (min) was obtained from a log-linear plot of the substrate depletion versus incubation time and was scaled to hepatic intrinsic clearance (CLint,app (μL/min/million cells) using the following equation: […]

Data set [3] in a line: Mouse subcutaneous neuropharmacokinetics study. Format: in vivo, Male C57Bl6 mice. The conditions noted are these: male, C57Bl6, mouse, brain (cerebellum homogenate) and plasma, sc, subcutaneous dose of 1 mg/kg, read-out: Mouse Cb,u/Cp,u. The protocol:
The neuropharmacokinetics studies in mouse were conducted at Wuxi (Shanghai, China) with bioanalysis conducted at BioDuro (Beijing, China) with the exception of the Comparative-compound 3, which bioanalysis was conducted at Wuxi. All in vivo studies were conducted in accordance with regulations and established guidelines using protocols reviewed and approved by the Pfizer Worldwide Research and Development (WRD, or other) Institutional Animal Care and Use Committee.
Male C57Bl6 mice were maintained on a 12-h light/dark cycle in a temperature- and humidity-controlled environment with free access to food and water. The test compounds (Examples 1 and 2 and Comparative Compounds 1-3) were administered as a subcutaneous dose of 1 mg/kg which was delivered in a dose volume of 10 mL/kg. The dose solution for all compounds was formulated in 5% DMSO/5% cremophor/90% saline. Blood and brain samples were collected at 0.5, 1, 2, 4, 8, 12, and 24 h post-dose (n=3 per time point). Blood samples were collected into tubes containing sodium fluoride and 4-(2-aminoethyl)benzenesulfonyl fluoride hydrochloride (AEBSF; final concentration 2 mg/mL) to inhibit hydrolase activity and placed on wet ice. Following centrifugation to afford plasma, the samples were transferred to polypropylene tubes and stored frozen at −20° C. to −80° C. until analysis. Immediately following blood collection the mice were euthanized by cervical dislocation and the brains were removed. The cerebellum was immediately frozen in liquid nitrogen and stored at −80° C. until analysis.
Cerebellum samples were thawed, diluted 1:4 (w/v) with water, and homogenized using an H-speed dispersator. Standards and controls were prepared in a similar manner using a brain homogenate prepared from untreated animals. The plasma standard curves were generated with species specific plasma. All plasma and brain homogenate samples were quantified via LC/MS-MS using multiple reaction monitoring with non-validated methods.
Equilibrium dialysis using standard procedures [See Di et al., “Species independence in brain tissue binding using brain homogenates”; Drug Metab Dispos 39:1270-1277, 2011) were used for determination of the unbound fraction of the test compounds (Examples 1 and 2 and Comparative Compounds 1-3) in mouse plasma (fu,p; see Di et al., “impact of recovery on fraction unbound using equilibrium dialysis”; J Pharm Sci 101:1327-1335, 2012) and unbound fraction in rat brain homogenate (fu,b; see Di et al., “Species independence in brain tissue binding using brain homogenates”; Drug Metab Dispos 39:1270-1277, 2011). The determination of the unbound fraction in plasma also included the addition of AEBSF at a final concentration of 2 mg/mL to the incubation.
The pharmacokinetic parameters were computed by non-compartmental analysis using Watson Bioanalytical LIMS version 7.5. The AUC values were calculated using the linear trapezoidal method for both brain and plasma. Measured total plasma (Cp) and brain (Cb; assuming brain tissue density of 1 g/mL) concentrations were converted to unbound (free) values using the matrix specific binding factor (fu, p or fu,b) to determine free plasma (Cp,u) and free brain (Cb,u) values. All neurocompartmental ratios (Cb,u/Cp,u) were calculated through use of AUC values with the exception of Comparative Compounds 1 and 2 which used the mean of individual animal values due to insufficient data to calculate an AUC value.

Data set [4] in a line: In vitro intrinsic clearance in human liver microsomes (HLM). Format: in vitro ADME. The note with it: pH 7.4, 1 μM substrate, NADPH, 37° C., read-out: HLM CLint, app. As to the method: Test Compounds (Example 1-3 and Comparative-Compounds 1-4) were prepared as solutions in DMSO. The final concentration of DMSO in the incubation was <0.1% (v/v). […] (all final concentrations) in a 384-well plate. The reaction mixture was pre-warmed at 37° C. for 10 min prior to initiation of the incubation. The incubation was quenched with acetonitrile containing internal standards at the following time points: 1, 4, 7, 12, 20, 25, 45, and 60 min (individual incubation plates per time point) with a subsequent addition of water. The samples were vortexed followed by centrifugation and the supernatant was analyzed by LC/MS-MS using multiple reaction monitoring. For control experiments, NADPH was omitted from the incubations.
The microsomal t½ (min) was obtained from a log-linear plot of the substrate depletion versus incubation time and was scaled to hepatic intrinsic clearance (CLint,app (μL/min/mg protein) using the following equation: […]
(Liver microsomes are a subcellular fraction often used to study metabolism.)

Turning to `CN([C@H]1COC2(CCN(C(=O)O[C@H](CO)C(F)(F)F)CC2)C1)S(=O)(=O)CC1CC1` [Comparative-Compound 1, (2R)-1,1,1-trifluoro-3-hydroxypropan-2-yl (3R)-3-{[(cyclopropylmethyl)sulfonyl](methyl)amino}-1-oxa-8-azaspiro[4.5]decane-8-carboxylate], the half-life in data set [1] is 0.5 h. In addition, the “HHEPs CLint, app” value in data set [2] is 5.5 μL/min/million. In addition, in data set [3], the Kp,uu (unbound brain/unbound plasma ratio) was found to be 0.18. For the same molecule, the microsomal CLint at 1 μM in data set [4] was less than 12.5 µL/min/mg.
The corresponding values for `CN([C@H]1COC2(CCN(C(=O)O[C@H](CO)C(F)(F)F)CC2)C1)S(=O)(=O)C1CC1` [Comparative-Compound 2, (2R)-1,1,1-trifluoro-3-hydroxypropan-2-yl (3R)-3-[(cyclopropylsulfonyl)-(methyl)amino]-1-oxa-8-azaspiro[4.5]decane-8-carboxylate] are 1.31 h, less than 3.52 μL/min/million, 0.29 and less than 8 µL/min/mg.
For `CN([C@H]1COC2(CCN(C(=O)O[C@H](CO)C(F)(F)F)CC2)C1)S(=O)(=O)c1ccccc1` [Comparative-Compound 3, (2R)-1,1,1-trifluoro-3-hydroxypropan-2-yl (3R)-3-[methyl(phenylsulfonyl)-amino]-1-oxa-8-azaspiro[4.5]decane-8-carboxylate], in that order: 5 h, 10.6 μL/min/million, 0.51 and 14.8 µL/min/mg.

For the origin of these results see US20210309669A1, “Heterocyclic Spiro Compounds As MAGL Inhibitors” (Pfizer Inc., priority 2018, published 2021).
